Test results from article PMC9693575, “Isopropyl Amino Acid Esters Ionic Liquids as Vehicles for Non-Steroidal Anti-Inflammatory Drugs in Potential Topical Drug Delivery Systems with Antimicrobial Activity” (International Journal of Molecular Sciences, 2022).

Experiments:
[1] = Solubility in water and phosphate buffers; settings: for Solubility in Water, as active substance: deionized water, 25 °C; for Solubility in Water, as active substance / Solubility in Phosphate Buffer pH = 5.4, as active substance / Solubility in Phosphate Buffer pH = 7.4, as active substance: AS = unmodified acid; for Solubility in Phosphate Buffer pH = 5.4, as active substance: pH 5.4, 25 °C; for Solubility in Phosphate Buffer pH = 7.4, as active substance: pH 7.4, 25 °C
Description: This study aims to compare the influence of amino acid structure on the physicochemical properties of NSAID salts with the isopropyl ester of amino acids.

[2] = n-octanol-water partition coefficient (logP), shake flask method; type: physicochemical; settings: n-octanol-water, shake flask; read-out: LogP
[3] = pKa / pKB by potentiometric acid-base titration and formation constant log(KS); settings: for Log(KS) formation constant: calculated from pKA of acid and pKB of base
Procedure: Determination of formation constant pKs
Zabrze, Poland). For the measurement of pKA acids, 0.1 M NaOH was used. In order to
ester hydrochloride, HCl aqueous solution, was added in an amount that allowed reach-
After that, an acid-base titration was made out by adding dropwise 5 mM

[4] = Thermogravimetric analysis (thermal stability); settings: air atmosphere, 10 °C min−1; for TDTGmax, maximum decomposition temperature: DTG; for TTGonset, the onset of the thermal degradation: TG
How it was run: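 Samples of 5–8 mg heated in Al2O3 crucibles under air (25 cm3 min−1) with nitrogen flow (10 cm3 min−1). Start of thermal degradation taken as the onset of the TG curve in the first decomposition phase.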

Escherichia coli = assay: Disc diffusion antimicrobial susceptibility test, Escherichia coli; type: cell-based; parameters: key to Inhibition diameter: -: no growth of the organism
Procedure: (§1) The plates were incubated for 24 h at 37 °C.

[5] = test system: Staphylococcus epidermidis; assay: Disc diffusion antimicrobial susceptibility test, Staphylococcus epidermidis; type: cell-based; parameters: key to Inhibition diameter: -: no growth of the organism
Procedure: as §1

Micrococcus Luteus = assay: Disc diffusion antimicrobial susceptibility test, Micrococcus luteus; type: cell-based; parameters: key to Inhibition diameter: -: no growth of the organism; settings: for zone of inhibition at 600000 µg/mL: solution transferred to disc 600 mg cm^−3; for zone of inhibition at 800000 µg/mL: solution transferred to disc 800 mg cm^−3
[6] = Solubility in organic solvents (modified Vogel's method); settings: 25 °C
[7] = Escherichia coli, 24 h, solution transferred to disc 200 mg cm^−3, read-out: Inhibition diameter
[8] = Escherichia coli, 24 h, solution transferred to disc 400 mg cm^−3, read-out: Inhibition diameter
[9] = Escherichia coli, 24 h, solution transferred to disc 600 mg cm^−3, read-out: Inhibition diameter
[10] = solution transferred to disc 25 mg cm^−3
[11] = solution transferred to disc 50 mg cm^−3
[12] = solution transferred to disc 100 mg cm^−3
[13] = Staphylococcus epidermidis, 24 h, solution transferred to disc 600 mg cm^−3, read-out: Inhibition diameter
[14] = Staphylococcus epidermidis, 24 h, solution transferred to disc 800 mg cm^−3, read-out: Inhibition diameter
[15] = solution transferred to disc 200 mg cm^−3
[16] = solution transferred to disc 400 mg cm^−3
[17] = Micrococcus luteus, 24 h, read-out: Inhibition diameter
[18] = solution transferred to disc 600 mg cm^−3
[19] = solution transferred to disc 1000 mg cm^−3
[20] = Micrococcus luteus, 24 h, solution transferred to disc 100 mg cm^−3, read-out: Inhibition diameter
[21] = Micrococcus luteus, 24 h, solution transferred to disc 200 mg cm^−3, read-out: Inhibition diameter
[22] = Micrococcus luteus, 24 h, solution transferred to disc 400 mg cm^−3, read-out: Inhibition diameter

In the case of CC[C@H](C)[C@H](N)C(=O)OC(C)C.O=C(O)c1ccccc1O [[L-IleOiPr][SA], L-isoleucine isopropyl ester salicylate], the “Solubility in Water, as active substance” value [1] is reported as 11.793 ± 0.422 gAS dm^−3, the “Solubility in Phosphate Buffer pH = 5.4, as active substance” value [1] is reported as 8.581 ± 0.015 gAS dm^−3 and the solubility thermodynamic ([1]; pH 5.4, aqueous buffer) is reported as 19.281 ± 0.015 mg/mL. For the same compound, the “Solubility in Phosphate Buffer pH = 7.4, as active substance” value [1] was 13.149 ± 0.041 gAS dm^−3, the solubility thermodynamic ([1]; pH 7.4, aqueous buffer) was 29.55 ± 0.041 mg/mL and the solubility thermodynamic ([1]; water) was 26.5 ± 0.422 mg/mL. The logP [2] was 1.6 ± 0.034, the “Log(KS) formation constant” value [3] was 7.25 and the “TDTGmax, maximum decomposition temperature” value [4] was 202.4 °C. The “TTGonset, the onset of the thermal degradation” value [4] was 144.2 °C, the zone of inhibition at 200000 µg/mL (Escherichia coli; [7]) was 6.2 ± 0.1 mm and the zone of inhibition at 400000 µg/mL (Escherichia coli; [8]) was 7.3 ± 0.3 mm. The zone of inhibition at 600000 µg/mL (Escherichia coli; [9]) was 13.7 ± 0.7 mm, the Inhibition diameter (Escherichia coli; [10]) was “-” and the Inhibition diameter (Escherichia coli; [11]) was “-”. The Inhibition diameter (Escherichia coli; [12]) was “-”, the zone of inhibition at 600000 µg/mL [5, 13] was 7.3 ± 0.4 mm and the zone of inhibition at 800000 µg/mL [5, 14] was 10.5 ± 0.3 mm. For the same compound, the Inhibition diameter [5, 10] was “-”, the Inhibition diameter [5, 11] was “-” and the Inhibition diameter [5, 12] was “-”. The Inhibition diameter [5, 15] was “-”, the Inhibition diameter [5, 16] was “-” and the zone of inhibition at 600000 µg/mL (Micrococcus Luteus; [17]) was 10.8 ± 0.5 mm. For the same compound, the zone of inhibition at 800000 µg/mL (Micrococcus Luteus; [17]) was 12.4 ± 0.4 mm, the Inhibition diameter (Micrococcus Luteus; [10]) was “-” and the Inhibition diameter (Micrococcus Luteus; [11]) was “-”. For the same compound, the Inhibition diameter (Micrococcus Luteus; [12]) was “-”, the Inhibition diameter (Micrococcus Luteus; [15]) was “-” and the Inhibition diameter (Micrococcus Luteus; [16]) was “-”. The “Solubility in Chloroform (39.1)” value [6] was “○ (soluble >100 mg cm^−3)”, the “Solubility in DMSO (45.1)” value [6] was “○ (soluble >100 mg cm^−3)” and the “Solubility in Dichloromethane (40.7)” value [6] was “○ (soluble >100 mg cm^−3)”. The “Solubility in Diethyl Ether (34.5)” value [6] was “○ (soluble >100 mg cm^−3)”, the “Solubility in Ethanol (59.1)” value [6] was “○ (soluble >100 mg cm^−3)” and the “Solubility in Ethyl Acetate (38.1)” value [6] was “○ (soluble >100 mg cm^−3)”. For the same compound, the “Solubility in Hexane (31.0)” value [6] was “● (insoluble <33 mg cm^−3)” and the “Solubility in Toluene (33.9)” value [6] was “○ (soluble >100 mg cm^−3)”.
With CC(C(=O)O)c1cccc(C(=O)c2ccccc2)c1 (racemic) [KETO, (R,S)-ketoprofen, reference compound] the logP [2] was 1.577 ± 0.01, the pKa [3] was 4.11 and the Inhibition diameter (Escherichia coli; [10]) was “-”. The Inhibition diameter (Escherichia coli; [11]) was “-”, the Inhibition diameter (Escherichia coli; [12]) was “-” and the Inhibition diameter (Escherichia coli; [15]) was “-”. For the same compound, the Inhibition diameter (Escherichia coli; [16]) was “-”, the Inhibition diameter (Escherichia coli; [18]) was “-” and the Inhibition diameter (Escherichia coli; [19]) was “-”. The Inhibition diameter [5, 10] was “-”, the Inhibition diameter [5, 11] was “-” and the Inhibition diameter [5, 12] was “-”. For the same compound, the Inhibition diameter [5, 15] was “-”, the Inhibition diameter [5, 16] was “-” and the Inhibition diameter [5, 18] was “-”. For the same compound, the Inhibition diameter ([5]; solution transferred to disc 800 mg cm^−3) was “-”, the Inhibition diameter [5, 19] was “-” and the zone of inhibition at 25000 µg/mL (Micrococcus Luteus; Micrococcus luteus, 24 h, solution transferred to disc 25 mg cm^−3, read-out: Inhibition diameter) was 8.3 ± 0.3 mm. The zone of inhibition at 50000 µg/mL (Micrococcus Luteus; Micrococcus luteus, 24 h, solution transferred to disc 50 mg cm^−3, read-out: Inhibition diameter) was 9.6 ± 0.2 mm, the zone of inhibition at 100000 µg/mL (Micrococcus Luteus; [20]) was 10.2 ± 0.2 mm and the zone of inhibition at 200000 µg/mL (Micrococcus Luteus; [21]) was 11.1 ± 0.4 mm. For the same compound, the zone of inhibition at 400000 µg/mL (Micrococcus Luteus; [22]) was 12.5 ± 0.2 mm, the zone of inhibition at 600000 µg/mL (Micrococcus Luteus; [17]) was 13.3 ± 0.2 mm and the zone of inhibition at 800000 µg/mL (Micrococcus Luteus; [17]) was 14.2 ± 0.1 mm.
For CSCC[C@H](N)C(=O)OC(C)C.O=C(O)c1ccccc1O [[L-MetOiPr][SA], L-methionine isopropyl ester salicylate], the “Solubility in Water, as active substance” value [1] was 6.749 ± 0.533 gAS dm^−3, the “Solubility in Phosphate Buffer pH = 5.4, as active substance” value [1] was 4.437 ± 0.007 gAS dm^−3 and the solubility thermodynamic ([1]; pH 5.4, aqueous buffer) was 10.55 ± 0.007 mg/mL. For the same compound, the “Solubility in Phosphate Buffer pH = 7.4, as active substance” value [1] was 7.586 ± 0.046 gAS dm^−3, the solubility thermodynamic ([1]; pH 7.4, aqueous buffer) was 18.04 ± 0.046 mg/mL and the solubility thermodynamic ([1]; water) was 16 ± 0.533 mg/mL. For the same compound, the logP [2] was 1.78 ± 0.035, the “Log(KS) formation constant” value [3] was 7.00 and the “TDTGmax, maximum decomposition temperature” value [4] was 205.0 °C. The “TTGonset, the onset of the thermal degradation” value [4] was 161.1 °C, the zone of inhibition at 100000 µg/mL (Escherichia coli; Escherichia coli, 24 h, solution transferred to disc 100 mg cm^−3, read-out: Inhibition diameter) was 7.8 ± 0.2 mm and the zone of inhibition at 200000 µg/mL (Escherichia coli; [7]) was 14.4 ± 0.8 mm. For the same compound, the zone of inhibition at 400000 µg/mL (Escherichia coli; [8]) was 16.4 ± 0.3 mm, the zone of inhibition at 600000 µg/mL (Escherichia coli; [9]) was 18.8 ± 0.4 mm and the Inhibition diameter (Escherichia coli; [10]) was “-”. For the same compound, the Inhibition diameter (Escherichia coli; [11]) was “-”, the zone of inhibition at 200000 µg/mL ([5]; Staphylococcus epidermidis, 24 h, solution transferred to disc 200 mg cm^−3, read-out: Inhibition diameter) was 6.6 ± 0.2 mm and the zone of inhibition at 400000 µg/mL ([5]; Staphylococcus epidermidis, 24 h, solution transferred to disc 400 mg cm^−3, read-out: Inhibition diameter) was 7.1 ± 0.1 mm. The zone of inhibition at 600000 µg/mL [5, 13] was 7.5 ± 0.2 mm, the zone of inhibition at 800000 µg/mL [5, 14] was 9.2 ± 0.5 mm and the Inhibition diameter [5, 10] was “-”. For the same compound, the Inhibition diameter [5, 11] was “-”, the Inhibition diameter [5, 12] was “-” and the zone of inhibition at 100000 µg/mL (Micrococcus Luteus; [20]) was 6.1 ± 0.1 mm. It also gave a zone of inhibition at 200000 µg/mL (Micrococcus Luteus; [21]) of 6.3 ± 0.1 mm, a zone of inhibition at 400000 µg/mL (Micrococcus Luteus; [22]) of 7.3 ± 0.4 mm and a zone of inhibition at 600000 µg/mL (Micrococcus Luteus; [17]) of 8.1 ± 0.9 mm. For the same compound, the zone of inhibition at 800000 µg/mL (Micrococcus Luteus; [17]) was 10.5 ± 1 mm, the Inhibition diameter (Micrococcus Luteus; [10]) was “-” and the Inhibition diameter (Micrococcus Luteus; [11]) was “-”. The “Solubility in Chloroform (39.1)” value [6] was “○ (soluble >100 mg cm^−3)”, the “Solubility in DMSO (45.1)” value [6] was “○ (soluble >100 mg cm^−3)” and the “Solubility in Dichloromethane (40.7)” value [6] was “○ (soluble >100 mg cm^−3)”. For the same compound, the “Solubility in Diethyl Ether (34.5)” value [6] was “○ (soluble >100 mg cm^−3)”, the “Solubility in Ethanol (59.1)” value [6] was “○ (soluble >100 mg cm^−3)” and the “Solubility in Ethyl Acetate (38.1)” value [6] was “○ (soluble >100 mg cm^−3)”. The “Solubility in Hexane (31.0)” value [6] was “● (insoluble <33 mg cm^−3)” and the “Solubility in Toluene (33.9)” value [6] was “○ (soluble >100 mg cm^−3)”.
